Results: patent publication US12247914B2, “Virus sensing in exhaled breath by infrared spectroscopy” (Vox Biomedical LLC, priority 2017, dated 2025)
Read-outs that look alike come from different tables or passages of the source.

Experiments:
[1] = Blood THC concentration versus time after smoking; format: in vivo; conditions: about an hour after smoking cessation
Method: (§1) The high lipid solubility of cannabinoids results in their persisting in the body for long periods of time. Even after a single administration of THC, detectable levels of THC can be found in the body for weeks or longer. […] There are three accepted laboratory methods for detecting THC in individuals that have smoked or ingested marijuana: (1) urine testing, for which passive inhalation up to 22 minutes for infrequent users can be detected for 7-10 days after inhalation, with longer periods for heavy users, (2) hair testing, with THC being detectible for up to 90 days after inhalation, and (3) blood and oral fluid testing, for which THC can be detected for 2-24 hours after use in most cases, but for up to 2 weeks in some heavy users. A detailed investigation of the relationship between time after marijuana smoking and relative subject impairment provides an estimate of the relative degree of impairment (defined under Standardized Field Sobriety Tests) as a function of time after smoking various smoke concentrations of THC is shown in Table 1.

[2] = cited from earlier work
subjects [3] = test: Percent of impaired subjects by Standardized Field Sobriety Tests after smoking; format: in vivo; conditions: about an hour after smoking cessation
Method: as §1

[4] = cited from earlier work; remark: listed apart in the source
subjects [5] = conditions: cited from earlier work
[6] = dose 1.74% THC smoked, Time 1 (0-5 mins) after smoking
[7] = dose 1.74% THC smoked, Time 2 (50-55 mins) after smoking
[8] = dose 1.74% THC smoked, Time 3 (100-105 mins) after smoking
[9] = dose 2.93% THC smoked, Time 1 (0-5 mins) after smoking
[10] = dose 2.93% THC smoked, Time 2 (50-55 mins) after smoking
[11] = dose 2.93% THC smoked, Time 3 (100-105 mins) after smoking

SMILES: CCCCCc1cc(O)c2c(c1)OC(C)(C)[C@@H]1CCC(C)=C[C@@H]21 [THC, delta-9-tetrahydrocannabinol]
- blood content of THC relative to its initial value [1]: ~10%
- time THC can be detected after use, blood and oral fluid testing ([2]; most cases): 2 to 24 h
- time THC can be detected after use, blood and oral fluid testing ([2]; some heavy users): up to 2 weeks
- time THC is detectible after inhalation, hair testing ([2]; hair): up to 90 days
- time THC can be detected after inhalation, urine testing ([2]; urine, infrequent users, passive inhalation up to 22 minutes): 7 to 10 days
- relative degree of impairment relative to its initial value (subjects [3]): about half
- Blood THC [4, 6]: 55.5 ng/mL
- Blood THC [4, 7]: 6.8 ng/mL
- Blood THC [4, 8]: 3.7 ng/mL
- Blood THC [4, 9]: 70.6 ng/mL
- Blood THC [4, 10]: 6.2 ng/mL
- Blood THC [4, 11]: 3.2 ng/mL
- % impaired (subjects [5]; [6]): 23%
- % impaired (subjects [5]; [7]): 23%
- % impaired (subjects [5]; [8]): 15%
- % impaired (subjects [5]; [9]): 46%
- % impaired (subjects [5]; [10]): 41%
- % impaired (subjects [5]; [11]): 28%
